From patent US6331520A, “Pharmaceutical compositions of peptides having low solubility in physiological medium” (Applied Research Systems ARS Holding NV, priority 1997, dated 2001)
Converted amounts (≈) assume the structure as drawn. Each block holds one compound with its values, some of them ahead of it. Non-standard residues stand in square brackets, D forms with d. Residues, ends and D or L forms follow the SMILES beside them. *: point of attachment. dPhe(4-Cl) = N[C@H](Cc1ccc(Cl)cc1)C(=O)O; d2Nal = N[C@H](Cc1ccc2ccccc2c1)C(=O)O; Lys(iPr) = CC(C)NCCCC[C@H](N)C(=O)O; d3Pal = N[C@H](Cc1cccnc1)C(=O)O; Nicotinoyl = O=C(c1cccnc1)*

Columns and labels:
Format in all cases: physicochemical
[1] = Solubilisation studies for antide: effect of hydrotropic agents in saline; details: for Solubility: antide 5 mg/ml added
Source text: hydrotropic agents (nicotinamide, sodium saccharin, sodium salicylate, sodium benzoate, histidine hydrochloride, thiamine hydrochloride, phenylalanine).
(§1) Saline used in these studies corresponds to 0.9% sodium chloride solution.
(§2) Following the visual analysis, a number of solutions were selected for further quantitative determination of the solubility by filtration (0.45 μm filters) and appropriate dilution using the RP-HPLC method described above.
The effect of different hydrotropic agents (1.5% & 15% w/w) in saline solutions was also evaluated and is described in Tables 8 and 9.

[2] = Solubilisation studies for antide: effect of pH (WFI, saline, acids)
Protocol: Solubilisation studies were carried out to study the effect of:
pH (solutions were acidified with either acetic acid or hydrochloric acid)
as §1, §2
Tables 3 to 7 summarise the observations collected in order to obtain information on the solubility behaviour of antide in water for injectables (WFI), WFI acidified by HCl or acetic acid, saline and saline acidified by acetic acid. In agreement with previous studies, the solubility of antide increased as the pH decreased.

[3] = Stability of nicotinamide/antide formulations; parameters: Stability (antide found): unit not given here
Protocol: RP-HPLC gradient elution, C-18 (e.g. Vydac 218 TP54, 250×4.6 mm) column. UV detection at 215 nm, injection volume 15 μl, mobile phase A: pH 4.5 phosphate buffer (0.1 M), mobile phase B: acetonitrile, flow rate=1.0 ml/min, runtime=23 min. External standard solution concentrations of 100 μg/ml were injected during analysis. The gradient was: 77% A, 23% B to 52% A, 48% B […].
Four formulations of antide and nicotinamide at different concentration ratios and adjusted to pH 5 were prepared and tested over 3 months at +40° C., +25° C. and +4° C.

[4] = Solubilisation studies for hGRF; details: for solubility thermodynamic at 1 week: 0.9% NaCl
Protocol: Solubilisation studies were carried out to study the effect of saline and pH 7 phosphate buffer on the solubility of hGRF.
Qunatitation of the amount of hGRF dissolved was performed by filtration of the equilibrated solution through a 0.45 μm filter prior to dilution and analysis by HPLC.

solubilisation ([1]; 1.5% w/w hydrotropic agents in saline, antide 10 mg/ml): not effective
antide solubilised ([1]; 5% nicotinamide in saline): about 0.5 mg/ml
antide solubilised ([1]; 20% nicotinamide in saline): 8.5 mg/mL
Solubility ([1]; saline + 15% nicotinamide, pH 5.79): 3320 µg/mL
Solubility ([1]; saline + 15% sodium benzoate, pH 6.69): 72 µg/mL
Solubility ([1]; saline + 15% sodium salicylate, pH 5.81): 210 µg/mL
Solubility ([1]; saline + 15% thiamine hydrochloride, pH 3.30): 3010 µg/mL
Solubility ([1]; saline + histidine hydrochloride (5%), pH 4.17): 76 µg/mL
Solubility ([1]; saline + phenylalanine (1.7%), pH 4.59): 66 µg/mL
Solubility ([2]; 10 mg/ml in saline, pH 3.0 or 4.6, 4% acetic acid): not soluble
Solubility ([2]; WFI, 10 mg/ml nominal amount added, pH 4.40): 8130 µg/mL (≈ 5110 µM)
Solubility ([2]; phosphate buffered saline, aqueous buffer, read-out: solubility): 16 µg/mL (≈ 10.1 µM)
Solubility ([2]; saline solution, natural pH 5.04): 25 µg/mL (≈ 15.7 µM)
solubility thermodynamic ([2]; water, without further acidification, read-out: solubility limit): 8100 µg/mL (≈ 5090 µM)
Stability (antide found) ([3]; antide 1 mg/ml, nicotinamide 5%, +4° C., 4W): 0.9
Stability (antide found) ([3]; antide 1 mg/ml, nicotinamide 5%, +4° C., 12W): 1.0
Stability (antide found) ([3]; antide 1 mg/ml, nicotinamide 5%, +25° C., 1W): 0.9
Stability (antide found) ([3]; antide 1 mg/ml, nicotinamide 5%, +25° C., 4W): 0.9
Stability (antide found) ([3]; antide 1 mg/ml, nicotinamide 5%, +25° C., 12W): 1.0
Stability (antide found) ([3]; antide 1 mg/ml, nicotinamide 5%, +40° C., 1W): 1.0
Stability (antide found) ([3]; antide 1 mg/ml, nicotinamide 5%, +40° C., 4W): 0.9
Stability (antide found) ([3]; antide 1 mg/ml, nicotinamide 5%, +40° C., 12W): 1.0
Stability (antide found) ([3]; antide 1 mg/ml, nicotinamide 5%, T = 0): 1.0
Stability (antide found) ([3]; antide 1 mg/ml, nicotinamide 25%, +4° C., 4W): 1.0
Stability (antide found) ([3]; antide 1 mg/ml, nicotinamide 25%, +4° C., 12W): 1.1
Stability (antide found) ([3]; antide 1 mg/ml, nicotinamide 25%, +25° C., 1W): 1.0
Stability (antide found) ([3]; antide 1 mg/ml, nicotinamide 25%, +25° C., 4W): 1.0
Stability (antide found) ([3]; antide 1 mg/ml, nicotinamide 25%, +25° C., 12W): 1.1
Stability (antide found) ([3]; antide 1 mg/ml, nicotinamide 25%, +40° C., 1W): 1.0
Stability (antide found) ([3]; antide 1 mg/ml, nicotinamide 25%, +40° C., 4W): 1.0
Stability (antide found) ([3]; antide 1 mg/ml, nicotinamide 25%, +40° C., 12W): 1.1
Stability (antide found) ([3]; antide 1 mg/ml, nicotinamide 25%, T = 0): 1.0
Stability (antide found) ([3]; antide 10 mg/ml, nicotinamide 5%, +4° C., 1W): 10.3
Stability (antide found) ([3]; antide 10 mg/ml, nicotinamide 5%, +4° C., 4W): 10.0
Stability (antide found) ([3]; antide 10 mg/ml, nicotinamide 5%, +4° C., 12W): 10.5
Stability (antide found) ([3]; antide 10 mg/ml, nicotinamide 5%, +25° C., 1W): gel
Stability (antide found) ([3]; antide 10 mg/ml, nicotinamide 5%, +25° C., 4W): gel
Stability (antide found) ([3]; antide 10 mg/ml, nicotinamide 5%, +25° C., 12W): gel
Stability (antide found) ([3]; antide 10 mg/ml, nicotinamide 5%, +40° C., 1W): gel
Stability (antide found) ([3]; antide 10 mg/ml, nicotinamide 5%, +40° C., 4W): gel
Stability (antide found) ([3]; antide 10 mg/ml, nicotinamide 5%, +40° C., 12W): gel
Stability (antide found) ([3]; antide 10 mg/ml, nicotinamide 5%, T = 0): 9.7
Stability (antide found) ([3]; antide 10 mg/ml, nicotinamide 25%, +4° C., 4W): 10.1
Stability (antide found) ([3]; antide 10 mg/ml, nicotinamide 25%, +25° C., 1W): 9.8
Stability (antide found) ([3]; antide 10 mg/ml, nicotinamide 25%, +25° C., 4W): 9.5
Stability (antide found) ([3]; antide 10 mg/ml, nicotinamide 25%, +25° C., 12W): 11.1
Stability (antide found) ([3]; antide 10 mg/ml, nicotinamide 25%, +40° C., 1W): 10.7
Stability (antide found) ([3]; antide 10 mg/ml, nicotinamide 25%, +40° C., 4W): 9.4
Stability (antide found) ([3]; antide 10 mg/ml, nicotinamide 25%, +40° C., 12W): 10.2
Stability (antide found) ([3]; antide 10 mg/ml, nicotinamide 25%, T = 0): 9.8
chemical degradation ([3]; antide/nicotinamide formulations, after 3 months): No chemical degradation
SMILES: CC(=O)N[C@H](Cc1ccc2ccccc2c1)C(=O)N[C@H](Cc1ccc(Cl)cc1)C(=O)N[C@H](Cc1cccnc1)C(=O)N[C@@H](CO)C(=O)N[C@@H](CCCCNC(=O)c1cccnc1)C(=O)N[C@H](CCCCNC(=O)c1cccnc1)C(=O)N[C@@H](CC(C)C)C(=O)N[C@@H](CCCCNC(C)C)C(=O)N1CCC[C@H]1C(=O)N[C@H](C)C(N)=O [antide] (Ac-[d2Nal][dPhe(4-Cl)][d3Pal]SK(Nicotinoyl)[dK](Nicotinoyl)L[Lys(iPr)]P[dA]-NH2)

solubility thermodynamic at 1 week ([4]; 25° C., one week): 42 µg/mL (≈ 12.5 µM)
solubility thermodynamic at 1 week ([4]; 40° C. for one week): 97 µg/mL (≈ 28.9 µM)
solubility at 1 week ([4]; 25° C., WFI, one week): > 1000 µg/mL
Solubility ([4]; 40° C. for one week, 0.9% NaCl + 5% nicotinamide): 875 µg/mL
solubility thermodynamic at 5 days ([4]; PBS, pH 7, aqueous buffer, 25° C., 5 days): 32 µg/mL (≈ 9.53 µM)
SMILES: CC[C@H](C)[C@H](NC(=O)[C@H](C)NC(=O)[C@H](CC(=O)O)NC(=O)[C@H](C)NC(=O)[C@@H](N)Cc1ccc(O)cc1)C(=O)N[C@@H](Cc1ccccc1)C(=O)N[C@H](C(=O)N[C@@H](CC(N)=O)C(=O)N[C@@H](CO)C(=O)N[C@@H](Cc1ccc(O)cc1)C(=O)N[C@@H](CCCNC(=N)N)C(=O)N[C@@H](CCCCN)C(=O)N[C@H](C(=O)N[C@@H](CC(C)C)C(=O)NCC(=O)N[C@@H](CCC(N)=O)C(=O)N[C@@H](CC(C)C)C(=O)N[C@@H](CO)C(=O)N[C@@H](C)C(=O)N[C@@H](CCCNC(=N)N)C(=O)N[C@@H](CCCCN)C(=O)N[C@@H](CC(C)C)C(=O)N[C@@H](CC(C)C)C(=O)N[C@@H](CCC(N)=O)C(=O)N[C@@H](CC(=O)O)C(=O)N[C@H](C(=O)N[C@@H](CCSC)C(=O)N[C@@H](CO)C(=O)N[C@@H](CCCNC(=N)N)C(N)=O)[C@@H](C)CC)C(C)C)[C@@H](C)O [hGRF, hGRF(1-29)-NH2]
